Key:
h-GABA-A α2β2γ1 = h-GABA-A α2β2γ1 (Homo sapiens (Human), UniProt P47869+Q8N1C3); test: Two-electrode voltage clamp electrophysiology in Xenopus oocytes expressing GABAA receptors; format: cell-based; conditions: for Efficacy (GABA) %: % modulation of GABA EC20 = 100*(Fold increase−1), compound at about 30-fold its Ki α2β2γ1; for Fold increase h-GABA-A α2β2γ1 oocyte @ 30-fold Ki: Xenopus oocytes, GABA EC20, compound at about 30-fold its Ki α2β2γ1
Method: Xenopus Oocytes Preparation Xenopus laevis oocytes at maturation stages V-VI were used for the expression of cloned mRNA encoding GABAA receptor subunits. Oocytes ready for RNA micro-injection were bought from Ecocyte, Castrop-Rauxel, Germany and stored in modified Barth's medium (composition in mM: NaCl 88, KCl 1, NaHCO3 2.4, HEPES 10, MgSO4 0.82, CaNO3 0.33, CaCl2 0.33, pH=7.5) at 20° C. until the experiment.
Oocytes were plated in 96-well plates for microinjection using the Roboinject automated instrument (MultiChannelSystems, Reutlingen, Germany). Approximately 50 nL of an aqueous solution containing the RNA transcripts for the subunits of the desired GABAA receptor subtype was injected into each oocyte. […] Oocytes were kept in modified Barth's medium (composition in mM: NaCl 88, KCl 1, NaHCO3 […], HEPES 10, MgSO4 0.82, CaNO3 0.33, CaCl2 0.33, pH=7.5) at 20° C. until the experiment.
Electrophysiological experiments were performed using the Roboocyte instrument (MultiChannelSystems, Reutlingen, Germany) on days 3 to 5 after the micro-injection of mRNA. During the experiment the oocytes were constantly superfused by a solution containing (in mM) NaCl 90, KCl 1, HEPES 5, MgCl2 1, CaCl2 1 (pH 7.4). Oocytes were impaled by two glass microelectrodes (resistance: 0.5-0.8 MQ) which were filled with a solution containing KCl 1M+K-acetate 1.5 M and voltage-clamped to −80 mV. The recordings were performed at room temperature using the Roboocyte two-electrode voltage clamp system (Multichannelsystem). After an initial equilibration period of 1.5 min GABA was added for 1.5 min at a concentration evoking approximately 20% of a maximal current response (EC20). After another rest interval of 2.5 min GABA was again added evoking a response of similar amplitude and shape. […] Current traces were recorded at a digitization rate of 10 Hz during and shortly before and after the GABA application.
Each compound and concentration was tested on at least 3 oocytes. Different oocytes were used for different compound concentrations.
For the analysis, the digitized current traces of the first and second GABA response were superimposed and, if necessary, rescaled to equal maximal amplitudes. The ratio between the two responses during the time interval of test compound application was calculated point by point. The extremum of the resulting “ratio trace” was taken as the efficacy (“Fold increase”) of the compound expressed as “% modulation of GABA EC20” (100*(Fold increase−1)).

[1] = molecular target: human GABAA α5β2γ1 receptor (Homo sapiens (Human), UniProt P31644+Q8N1C3); test: Radioligand binding assay, competition for [3H]RO7239181, γ1-containing GABAA subtypes

Row | Compound | Efficacy (GABA) % (h-GABA-A α2β2γ1) | Fold increase h-GABA-A α2β2γ1 oocyte @ 30-fold Ki (h-GABA-A α2β2γ1) | Ki [1]
1 | Cc1nnc2n1-c1sc3c(c1C(c1c(F)cccc1F)=N[C@H]2C)CCCCC3 [Example 2, (7S)-9-(2,6-difluorophenyl)-3,7-dimethyl-18-thia-2,4,5,8-tetrazatetracyclo[8.8.0.02,6.011,17]octadeca-1(10),3,5,8,11(17)-pentaene] | 66% | 1.66 | 1.7 nM
2 | Cc1nnc2n1-c1sc3c(c1C(c1c(F)cccc1Cl)=N[C@H]2C)COCCO3 [Example 35, (7S)-9-(2-chloro-6-fluoro-phenyl)-3,7-dimethyl-13,16-dioxa-18-thia-2,4,5,8-tetrazatetracyclo[8.8.0.02,6.011,17]octadeca-1(10),3,5,8,11(17)-pentaene] | 61% | 1.61 | 5.21 nM
3 | C[C@@H]1N=C(c2c(F)cccc2F)c2c(sc3c2COCCC3)-n2cc(C(=O)NCC(C)(C)O)nc21 [Example 67, (7S)-9-(2,6-difluorophenyl)-N-(2-hydroxy-2-methyl-propyl)-7-methyl-13-oxa-18-thia-2,5,8-triazatetracyclo[8.8.0.02,6.011,17]octadeca-1(10),3,5,8,11(17)-pentaene-4-carboxamide] | 164% | 2.64 | 7.4 nM
4 | Cc1nnc2n1-c1sc3c(c1C(c1c(F)cccc1F)=N[C@H]2C)COCCO3 [Example 21, (7S)-9-(2,6-difluorophenyl)-3,7-dimethyl-13,16-dioxa-18-thia-2,4,5,8-tetrazatetracyclo[8.8.0.02,6.011,17]octadeca-1(10),3,5,8,11(17)-pentaene] | 140% | 2.40 | 2.33 nM
5 | C[C@@H]1N=C(c2c(F)cccc2F)c2c(sc3c2COCCC3)-n2nc(C(=O)NC[C@@](C)(O)C(F)(F)F)nc21 [Example 70, (7S)-9-(2,6-difluorophenyl)-7-methyl-N-[(2R)-3,3,3-trifluoro-2-hydroxy-2-methyl-propyl]-13-oxa-18-thia-2,3,5,8-tetrazatetracyclo[8.8.0.02,6.011,17]octadeca-1(10),3,5,8,11(17)-pentaene-4-carboxamide] | 148% | 2.48 | 5.8 nM
6 | Cc1nnc2n1-c1sc3c(c1C(c1c(F)cccc1F)=NC2)CCCCO3 [Example 18, 9-(2,6-difluorophenyl)-3-methyl-16-oxa-18-thia-2,4,5,8-tetrazatetracyclo[8.8.0.02,6.011,17]octadeca-1(10),3,5,8,11(17)-pentaene] | 113% | 2.13 | 1.84 nM
7 | Cc1nnc2n1-c1sc3c(c1C(c1c(F)cccc1F)=N[C@H]2C)CCCCO3 [Example 19, (7S)-9-(2,6-difluorophenyl)-3,7-dimethyl-16-oxa-18-thia-2,4,5,8-tetrazatetracyclo[8.8.0.02,6.011,17]octadeca-1(10),3,5,8,11(17)-pentaene] | 122% | 2.22 | 1.86 nM
8 | C[C@@H]1N=C(c2c(F)cccc2F)c2c(sc3c2COCCO3)-n2nc(C(=O)NCC(C)(C)O)nc21 [Example 45, (7S)-9-(2,6-difluorophenyl)-N-(2-hydroxy-2-methyl-propyl)-7-methyl-13,16-dioxa-18-thia-2,3,5,8-tetrazatetracyclo[8.8.0.02,6.011,17]octadeca-1(10),3,5,8,11(17)-pentaene-4-carboxamide] | 101% | 2.01 | 3.25 nM
9 | C[C@@H]1N=C(c2c(F)cccc2F)c2c(sc3c2COCCC3)-n2nc(C(=O)N[C@H]3C[C@@H](O)C3)nc21 [Example 64, (7S)-9-(2,6-difluorophenyl)-N-(cis-3-hydroxycyclobutyl)-7-methyl-13-oxa-18-thia-2,3,5,8-tetrazatetracyclo[8.8.0.02,6.011,17]octadeca-1(10),3,5,8,11(17)-pentaene-4-carboxamide] | 164% | 2.64 | 6.5 nM
10 | C[C@@H]1N=C(c2c(F)cccc2F)c2c(sc3c2COCCC3)-n2cc(C(=O)NCCO)nc21 [Example 66, (7S)-9-(2,6-difluorophenyl)-N-(2-hydroxyethyl)-7-methyl-13-oxa-18-thia-2,5,8-triazatetracyclo[8.8.0.02,6.011,17]octadeca-1(10),3,5,8,11(17)-pentaene-4-carboxamide] | 153% | 2.53 | 2.94 nM
11 | CCOC1CN(C(=O)c2nc3n(n2)-c2sc4c(c2C(c2c(F)cccc2F)=N[C@H]3C)COCCO4)C1 [Example 31, [(7S)-9-(2,6-Difluorophenyl)-7-methyl-13,16-dioxa-18-thia-2,3,5,8-tetrazatetracyclo[8.8.0.02,6.011,17]octadeca-1(10),3,5,8,11(17)-pentaen-4-yl]-(3-ethoxyazetidin-1-yl)methanone] | 69% | 1.69 | 2.4 nM
12 | C[C@@H]1N=C(c2c(F)cccc2F)c2c(sc3c2COCCO3)-n2nc(C(=O)NC[C@@](C)(O)C(F)(F)F)nc21 [Example 46, (7S)-9-(2,6-difluorophenyl)-7-methyl-N-[(2R)-3,3,3-trifluoro-2-hydroxy-2-methyl-propyl]-13,16-dioxa-18-thia-2,3,5,8-tetrazatetracyclo[8.8.0.02,6.011,17]octadeca-1(10),3,5,8,11(17)-pentaene-4-carboxamide] | 84% | 1.84 | 3.54 nM
13 | Cc1nnc2n1-c1sc3c(c1C(c1c(F)cccc1F)=N[C@H]2C)CC[C@@H](O)CC3 [Example 27, (7S,14R)-9-(2,6-difluorophenyl)-3,7-dimethyl-18-thia-2,4,5,8-tetrazatetracyclo[8.8.0.02,6.011,17]octadeca-1(10),3,5,8,11(17)-pentaen-14-ol] | 77% | 1.77 | 10.9 nM
14 | C[C@@H]1N=C(c2c(F)cccc2F)c2c(sc3c2COCCO3)-n2nc(C(=O)NC3CC3)nc21 [Example 36] | 89% | 1.89 | 3.66 nM
15 | Cc1cn2c(nc1=O)[C@H](C)N=C(c1c(F)cccc1F)c1c-2sc2c1CCCCC2 [Example 26, (8S)-10-(2,6-difluorophenyl)-4,8-dimethyl-19-thia-2,6,9-triazatetracyclo[9.8.0.02,7.012,18]nonadeca-1(11),3,6,9,12(18)-pentaen-5-one] | 109% | 2.09 | 3.78 nM
16 | C[C@@H]1N=C(c2c(F)cccc2F)c2c(sc3c2COC[C@H](C)O3)-n2nc(C(=O)N3CC(OC(C)(C)C)C3)nc21 [Example 41, (3-tert-butoxyazetidin-1-yl)-[(7S,15S)-9-(2,6-difluorophenyl)-7,15-dimethyl-13,16-dioxa-18-thia-2,3,5,8-tetrazatetracyclo[8.8.0.02,6.011,17]octadeca-1(10),3,5,8,11(17)-pentaen-4-yl]methanone] | 167% | 2.67 | 6.2 nM
17 | Cc1nc2n(n1)-c1sc3c(c1C(c1c(F)cccc1F)=N[C@H]2C)COC[C@H](C)O3 [Example 39, (7S,15S)-9-(2,6-difluorophenyl)-4,7,15-trimethyl-13,16-dioxa-18-thia-2,3,5,8-tetrazatetracyclo[8.8.0.02,6.011,17]octadeca-1(10),3,5,8,11(17)-pentaene] | 150% | 2.50 | 3.47 nM
18 | C[C@@H]1N=C(c2c(F)cccc2F)c2c(sc3c2COCCO3)-n2cc(C(=O)NCC3(O)CC3)nc21 [Example 65, (7S)-9-(2,6-difluorophenyl)-N-[(1-hydroxycyclopropyl)methyl]-7-methyl-13,16-dioxa-18-thia-2,5,8-triazatetracyclo[8.8.0.02,6.011,17]octadeca-1(10),3,5,8,11(17)-pentaene-4-carboxamide] | 169% | 2.69 | 1.69 nM

Reference: US20240294543A1, “CYCLOHEPTA-THIENO-DIAZEPINE DERIVATIVES AS GABA A GAMMA1 PAM” (Hoffmann-La Roche Inc., priority 2021, published 2024)
